Results published in the METLIN SMRT retention time set (Domingo-Almenara et al. 2019).

Test: gradient 5% acetonitrile 3 min, to 50% in 2 min, to 85% in 15 min, held 3 min, 100 µL/min
Conditions: column: Zorbax Extend-C18 2.1 x 50 mm; eluents: water / acetonitrile, 0.1% formic acid
Outline: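 Each retention time is based on an adduct peak selected computationally and verified by manual inspection. Measurements used HPLC–quadrupole time-of-flight mass spectrometry in positive and negative ionization mode on mixtures of ~100 pure standards. Chromatography ran on a Zorbax Extend-C18 column (2.1 × 50 mm, 1.8 μm) at 100 μL/min with water and acetonitrile, each containing 0.1% formic acid, and dead and dwell volumes of 40 μL and 900 μL.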

SMILES	RP-LC retention time [s]
Nc1nnc(CCS(=O)(=O)c2ccccc2)o1	565
COc1ccc(C2=NC(c3ccc(Cl)cc3)C(c3ccc(Cl)cc3)N2C(=O)N2CCNC(=O)C2)c(OC(C)C)c1 (configuration not stated)	887
COCCNC(=O)c1ccc2c(c1)CCCN2S(=O)(=O)c1ccccc1	767
O=C(NCc1ccc2c(c1)CCCN2C(=O)C1CCC1)c1cc(F)cc(F)c1	934
CS(=O)(=O)N1CCN(Cc2cc3nc(-c4cccc5[nH]ncc45)nc(N4CCOCC4)c3s2)CC1	706
CC(C)c1nncn1C1CCN(S(=O)(=O)Cc2ccccc2F)CC1	688
O=C(CN1CCN(Cc2ccc(F)cc2)C(=O)C1=O)NCc1ccc2c(c1)OCO2	780
COc1ccc(N2CCN(c3ncc4c(n3)CCN(Cc3ccccc3Cl)C4)CC2)cc1	667
CCCN1CCN(C(=O)CCC(=O)N2CCc3c(c(C(=O)N4CCCC4)nn3C)C2)CC1	577
CCn1c(C(=O)N2CCN(c3cccc(C)c3C)CC2)cc2sccc21	1070
CCC(CC)NC(=O)CCC1CCN(c2cc(NC3CC3)ncn2)CC1	654
CN1c2ccc(Cl)cc2C(=O)NC12CCN(C(=O)c1ccccc1)CC2	793
O=C(Cn1cnc2nc3c(cc2c1=O)CCCC3)Nc1cccc(C(F)(F)F)c1	823
CC(=O)Nc1ccc(NC(=O)CCNc2c(-c3ccc(F)cc3)nc3cnccn23)cc1	630
CCc1cc(=O)n(CC(=O)Nc2cccc(Cl)c2)c(N2CCOCC2)n1	788
O=C(Nc1ccccc1)C1CCN(S(=O)(=O)c2cc(C(=O)N3CCCCCC3)cs2)CC1	896
O=C(NCc1ccncc1)C1CCCN(c2nnc3ccc(C(F)(F)F)cn23)C1 (configuration not stated)	550
COc1ccc(C(=O)C(C)OC(=O)C(C)N2C(=O)c3ccccc3C2=O)cc1 (configuration not stated)	913
O=C(NCC(=O)N1CCOC(c2ccccc2)C1)c1ccc(-c2ccccc2)cc1 (configuration not stated)	893
CN(Cc1ccco1)C(=O)c1c2c(nc3ccccc13)C(=O)N(C1CCCCC1)C2	844
O=C(NCc1ccc2c(c1)OCO2)c1ncoc1-c1ccccc1C(=O)N1CCCC1	757
CCn1cc(-c2ccc(C)cc2)cc1C(=O)N1CCN(C)CC1	657

SMILES	RP-LC retention time [s]
COc1ccc(Nc2ccc3c(=O)c(-c4ccccc4OC)c(C)oc3c2)cc1	947
COc1ccc2oc(-c3csc(NC(=O)c4c(F)cccc4F)n3)cc2c1	1010
CCn1ncc(CN(C)C(=O)C2CN(C(=O)c3ccccc3)CC23CCCCC3)c1C (configuration not stated)	774
COc1ccc(CC(=O)Nc2nnc(SCc3nnc(-c4ccccc4C)o3)s2)cc1	923
CC12CC(c3ccccc3O1)C(C(=O)Nc1cccc(C(F)(F)F)c1)C(=O)N2 (configuration not stated)	897
O=C(c1cnccn1)N1CCC(N2C(=O)C(OCC3CC3)C23CCOCC3)CC1 (configuration not stated)	607
Cc1ccc(CNC(=O)N2CC=C(c3cn(C)c4ncccc34)CC2)cc1	818
CCn1nc(C)c(CCNC(=O)c2ccc(-c3ccc4c(c3)CCN4C(C)=O)cc2)c1C	676
C=CCN1C(=O)COc2ccc(-c3csc(NC(=O)c4ccccc4)n3)cc21	982
CCC(=O)Oc1ccc(N(C)C2=NS(=O)(=O)c3ccccc32)cc1	859
COc1cc(COc2cc(N)c(Cl)cc2C(=O)CCC2CCN(CCNS(C)(=O)=O)CC2)cc(OC)c1	761
CCN(CC)CCNC(=O)c1ccc(NCN2C(=O)NC(c3ccccc3)(c3ccccc3)C2=O)cc1	726
CN(C)S(=O)(=O)c1ccc(C(=O)N2CC(=O)Nc3ccc(Cl)cc3C2c2ccccc2)cc1 (configuration not stated)	873
CCCn1c(C2CCN(C(=O)Nc3ccc(F)cc3)CC2)cc(=O)n2nccc12	648
Cn1nc(C(=O)N2CCCN(c3cc(-c4ccc(Br)cc4)[nH]n3)CC2)c2ccccc21	807
CC(C)NC(=O)Nc1ccccc1NC(=O)c1cccnc1	591
CCOc1ccc(-c2csc(NC(=O)CCCOc3ccc(OC)cc3)n2)cc1	1080
Cc1cc(N2CCC(NC(=O)Nc3ccc(F)cc3F)C2=O)ccc1F (configuration not stated)	845
O=C(NCCc1cccnc1)C1CCc2nc(N3CCCC3)ncc2C1 (configuration not stated)	532
O=C(NCCC1=CCCCC1)c1c[nH]c2ncccc12	968
CC(=O)c1ccc(NC(=O)c2[nH]c3cc(C)sc3c2CN(C)C)cc1	638
Cc1ccc(NC(=O)Nc2cccn3nc(C(C)C)nc23)cc1	964

SMILES	RP-LC retention time [s]
CC(C)CCN1CCC(N2CCN(CCc3ccccc3)CC2)C1=O (configuration not stated)	565
COc1cccc(-c2noc3ncnc(N4CCN(c5ccccn5)CC4)c23)c1	660
O=C(NCC1CC1)C1CCN(c2nc3ccsc3c(=O)n2-c2ccccc2)CC1	747
O=C(Cn1ccc2sccc2c1=O)NCc1ccccc1F	785
O=C(Cc1cccs1)N(c1ccc(Br)cc1)C1C=CS(=O)(=O)C1 (configuration not stated)	833
COc1ccc(OC)c(S(=O)(=O)NC2CCCN(c3ccc(=O)n(C)n3)C2)c1 (configuration not stated)	702
CC1CCN(c2ncc3c(n2)CCC(C(=O)NCCN2CCc4ccccc4C2)C3)CC1 (configuration not stated)	654
Cc1cccc(OCC(=O)N(Cc2ccc(N(C)C)cc2)C2CCS(=O)(=O)C2)c1C (configuration not stated)	798
Cn1c(C(=O)N2CCN(c3ccccn3)CC2)cc2c(-c3cccs3)nn(-c3ccccc3)c21	749
COc1ccc(Nc2nc(N(C)C)nc3nccnc23)cc1	563
COCc1cc(=O)n(CC(=O)Nc2cc(C(F)(F)F)ccc2Cl)c(N2CCOCC2)n1	1060
CCn1cc(-c2nc(-c3ccc(C)cc3)no2)c(=O)c2cc(F)c(N3CCOCC3)cc21	961
CCc1nccn1Cc1nc(-c2ccc(F)c(Cl)c2)no1	669
COc1ccc(C(=O)CSc2nnc3sc4ccccc4n23)cc1OC	768
COc1cc2c(Oc3ccc(NC(=O)C4(C(=O)Nc5ccc(F)cc5)CC4)cc3F)ccnc2cc1OCCCN1CCOCC1	670
COc1cccc(C(=O)Nc2cccc(-c3nc4ncccc4o3)c2)c1	781
O=C(C1CC(=O)N(c2ccc3c(c2)CCN3C(=O)C2CC2)C1)N1CCC2(CC1)OCCO2 (configuration not stated)	652
CCCCOc1ccc(-c2nc(C3CC(=O)N(c4ccc(C)cc4)C3)no2)cc1 (configuration not stated)	1310
O=S(=O)(NCCC1=CCCCC1)c1cccc(-c2nc(-c3ccccc3)no2)c1	1360
O=C(C1CCN(c2ncnc3c2sc2ncccc23)CC1)N1CCN(c2ccccn2)CC1	586
CN1C(=O)C(c2c(-c3ccccc3)[nH]c3[nH]c(=O)[nH]c(=O)c23)c2ccccc21 (configuration not stated)	668
Cc1nc2c(ccc3nc(NC(=O)c4cccc(F)c4)sc32)s1	893

SMILES	RP-LC retention time [s]
Cc1cccc(OCC(=O)N2CCN(c3cc(C)n4c(C)nnc4n3)CC2)c1	614
CC(C)(C)C(O)CCNC(=O)C1(c2ccc(F)cc2)CC1 (configuration not stated)	823
CCOC(=O)C1CC(C)=C(C)CC1C(=O)O (configuration not stated)	854
COc1ccc(OC)c(NS(=O)(=O)c2cc(-c3cc(C(F)(F)F)on3)sc2C)c1	1130
Cc1ccc(N2CCC(NC(=O)Nc3cc(Cl)ccc3C)C2=O)cc1 (configuration not stated)	956
O=S(=O)(Nc1ccc(-c2noc(-c3ccc(Cl)cc3)n2)cc1)c1cccs1	1180
COc1ccc(S(=O)(=O)N2CCCC(C(=O)Nc3cccc(SC)c3)C2)cc1Cl (configuration not stated)	1060
CCn1c(=O)sc2cc(S(=O)(=O)N3CCC(C(=O)NCc4ccccn4)CC3)ccc21	629
O=C(Cc1nnc2c(-c3nc(C4CC4)no3)cccn12)N1CCc2ccccc2C1	722
CCN1CCN(c2nc3cc(C(=O)OC)ccc3c(=O)n2-c2cc(OC)cc(OC)c2)CC1	661
Cc1cnc(C(=O)N2CCCC2c2nc(CCOCC3CCCC3)no2)cn1 (configuration not stated)	903
CC(C)(C)NC(=O)NC1CCN(c2ccccc2)C1=O (configuration not stated)	722
O=C(Cn1c(=O)c2cccn2c2ccc(F)cc21)NC1CC1	685
Cn1nc(C(=O)NCc2ccc(F)cc2)c2c1CCN(C(=O)c1ccc(Br)o1)C2	790
CCc1noc(NC(C)=O)c1-c1ccc(OC)c(S(=O)(=O)Nc2ccc(F)cc2Cl)c1	841
CC1CCN(C(=O)CN2C(=O)CCCc3cc(S(=O)(=O)N4CCCCCC4)ccc32)CC1	956
CC(=O)c1ccc(NC(=O)Cn2nc3c4cc(-c5ccc(C(C)C)cc5)nn4ccn3c2=O)cc1	1020
CCN(CC)S(=O)(=O)c1cc(-c2nnc(-c3ccccc3Cl)o2)ccc1OC	1040
CCCCOc1ccc(C(=O)NC2(c3nc(CC)no3)CCCCC2)cc1	1160
CCCc1noc(-c2ccc3nnc(CC(=O)N4CCSCC4)n3c2)n1	755
CCN1C(=O)c2cc(S(=O)(=O)Nc3cc(C)cc(C)c3)ccc2Oc2cccnc21	1080
